Patent publication US9718817B2, “Aryl and heteroaryl ether compounds as ROR gamma modulators” (Glenmark Pharmaceuticals S.A., priority 2014, dated 2017)

Biological target: T1, GST-tagged ROR gamma ligand binding domain (LBD) (Homo sapiens, UniProt P51449)
T1 construct: purchased Invitrogen
T1 sequence (P51449 269-508 limits assumed): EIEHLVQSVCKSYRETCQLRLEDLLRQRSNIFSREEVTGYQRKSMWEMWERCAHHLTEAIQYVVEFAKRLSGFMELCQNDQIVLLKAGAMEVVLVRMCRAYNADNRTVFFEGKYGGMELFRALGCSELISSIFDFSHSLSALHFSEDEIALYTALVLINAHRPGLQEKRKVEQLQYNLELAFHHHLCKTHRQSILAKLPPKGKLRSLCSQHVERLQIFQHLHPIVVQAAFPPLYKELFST
Assay: TR-FRET assay for ROR gamma (LanthaScreen co-activator peptide recruitment)
Assay type: biochemical
Conditions: for IC50: class symbols, from dose response curve; for inhibition at 1 µM: compound 1 μM; for inhibition at 1 µM / inhibition at 10 µM: TR-FRET ratio 520/495, percent of control; for inhibition at 10 µM: compound 10 μM
How it was run: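 Antagonist mode: 10 nM GST-RORγ LBD pre-incubated with compound 1 h at 22 °C in 25 mM HEPES pH 7.4, 100 mM NaCl, 5 mM DTT, 0.01% BSA, 4% DMSO final. Then 300 nM fluorescein-D22 co-activator peptide plus 10 nM Tb-anti-GST added, 1 h at room temperature. IC50 by nonlinear regression of the 520/495 TR-FRET ratio as percent of no-compound control.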

CCS(=O)(=O)c1ccc(CC(=O)Nc2ccc(C#CC(C)(C)Oc3ccc(F)c(F)c3)cc2)cc1 [Example 70, N-{4-[3-(3,4-Difluoro-phenoxy)-3-methyl-but-1-yn-1-yl]-phenyl}-2-(4-ethanesulfonyl-phenyl)-acetamide]
IC50: < 50 nM | inhibition at 1 µM: 77.7% | inhibition at 10 µM: 81.3%

CCS(=O)(=O)c1ccc(CC(=O)Nc2ccc(C#CC(C)(C)Oc3cc(F)c(F)c(F)c3)cc2)cc1 [Example 71, 2-(4-Ethanesulfonyl-phenyl)-N-{4-[3-methyl-3-(3,4,5-trifluoro-phenoxy)-but-1-yn-1-yl]-phenyl}-acetamide]
IC50: < 50 nM | inhibition at 1 µM: 75.9% | inhibition at 10 µM: 79.9%

CCS(=O)(=O)c1ccc(CC(=O)Nc2ccc(C#CC(C)(C)Oc3ccc(F)c(F)c3F)cc2)cc1 [Example 72, 2-(4-Ethanesulfonyl-phenyl)-N-{4-[3-methyl-3-(2,3,4-trifluoro-phenoxy)-but-1-yn-1-yl]-phenyl}-acetamide]
IC50: < 50 nM | inhibition at 1 µM: 76.2% | inhibition at 10 µM: 79.7%

CCS(=O)(=O)c1ccc(CC(=O)Nc2ccc(C#CC(C)(C)Oc3c(F)cc(F)cc3F)cc2)cc1 [Example 73, 2-(4-Ethanesulfonyl-phenyl)-N-{4-[3-methyl-3-(2,4,6-trifluoro-phenoxy)-but-1-yn-1-yl]-phenyl}-acetamide]
IC50: < 50 nM | inhibition at 1 µM: 75.4% | inhibition at 10 µM: 78.6%

CCS(=O)(=O)c1ccc(CC(=O)Nc2ccc(C#CC(C)(C)Oc3cc(F)c(F)cc3F)cc2)cc1 [Example 74, 2-(4-Ethanesulfonyl-phenyl)-N-{4-[3-methyl-3-(2,4,5-trifluoro-phenoxy)-but-1-yn-1-yl]-phenyl}-acetamide]
IC50: < 50 nM | inhibition at 1 µM: 73.6% | inhibition at 10 µM: 78.8%

CCS(=O)(=O)c1ccc(CC(=O)Nc2ccc(C#CC(C)(C)Oc3c(F)cc(Cl)cc3F)cc2)cc1 [Example 75, N-{4-[3-(4-Chloro-2,6-difluoro-phenoxy)-3-methyl-but-1-yn-1-yl]-phenyl}-2-(4-ethanesulfonyl-phenyl)-acetamide]
IC50: < 50 nM | inhibition at 1 µM: 83.2% | inhibition at 10 µM: 84%

CCS(=O)(=O)c1ccc(CC(=O)Nc2ccc(C#CC(C)(C)Oc3ccc(C(F)(F)F)cc3)cc2)cc1 [Example 76, 2-(4-Ethanesulfonyl-phenyl)-N-{4-[3-methyl-3-(4-trifluoromethyl-phenoxy)-but-1-yn-1-yl]-phenyl}-acetamide]
IC50: < 50 nM | inhibition at 1 µM: 82.2% | inhibition at 10 µM: 86.2%

CCS(=O)(=O)c1ccc(CC(=O)Nc2ccc(C#CC(C)(C)Oc3ccc(OC(F)(F)F)cc3)cc2)cc1 [Example 77, 2-(4-Ethanesulfonyl-phenyl)-N-{4-[3-methyl-3-(4-trifluoromethoxy-phenoxy)-but-1-yn-1-yl]-phenyl}-acetamide]
IC50: < 50 nM | inhibition at 1 µM: 82.8% | inhibition at 10 µM: 87.1%

CCS(=O)(=O)c1ccc(CC(=O)Nc2ccc(C#CC(C)(C)Oc3ccc(OC(F)F)cc3)cc2)cc1 [Example 78, N-{4-[3-(4-Difluoromethoxy-phenoxy)-3-methyl-but-1-yn-1-yl]-phenyl}-2-(4-ethanesulfonyl-phenyl)-acetamide]
IC50: < 50 nM | inhibition at 1 µM: 85.2% | inhibition at 10 µM: 87.4%

CCS(=O)(=O)c1ccc(CC(=O)Nc2ccc(C#CC(C)(C)Oc3ccc(C#N)cc3)cc2)cc1 [Example 79, N-{4-[3-(4-Cyano-phenoxy)-3-methyl-but-1-yn-1-yl]-phenyl}-2-(4-ethanesulfonyl-phenyl)-acetamide]
IC50: < 50 nM | inhibition at 1 µM: 79.9% | inhibition at 10 µM: 86.1%

CCS(=O)(=O)c1ccc(CC(=O)Nc2ccc(C#CC(C)(C)Oc3ccc(Cl)cc3F)nc2)cc1 [Example 80, N-{6-[3-(4-Chloro-2-fluoro-phenoxy)-3-methyl-but-1-yn-1-yl]-pyridin-3-yl}-2-(4-ethanesulfonyl-phenyl)-acetamide]
inhibition at 1 µM: 50.2% | inhibition at 10 µM: 62.4%
